How the values were obtained:
Assay type in all cases: in vivo
Lolium multiflorum Lam. [1] = assay: Test Example 5: herbicidal effect by foliage application, plastic box (symbol K); conditions: 320 g/ha, 3 weeks after application
Method in brief: (§1)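 Herbicide, formulated as an emulsion and diluted in water, is sprayed onto the aerial parts of 14-day seedlings. These were grown at 25° C. to 30° C. in sterilized diluvial soil; effects are graded after 3 weeks.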

Avena fatua = assay: Test Example 5: herbicidal effect by foliage application, plastic box (symbol I); conditions: 320 g/ha, 3 weeks after application
Method in brief: as §1

Alopecurus myosuroides [2] = assay: Test Example 4: herbicidal effect by soil treatment (symbol J); conditions: application herbicide amount 320 g/ha
Method in brief: (§2)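 Seeds were sown in sterilized diluvial soil, covered with about 1.5 cm of soil, and the soil surface was sprayed with a water-diluted emulsion of the compound at a predetermined rate. Plants grew in a greenhouse at 25° C. to 30° C.; effects were scored visually 3 weeks after application.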

corn = assay: Test Example 4: effect on crop by soil treatment (symbol c); conditions: application herbicide amount 320 g/ha
Method in brief: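 Plants are raised in a greenhouse (25° C. to 30° C.) from spot-sown seed, which sits under about 1.5 cm of sterilized diluvial soil in a box shared with weed species.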

Setaria viridis [3] = assay: Test Example 5: herbicidal effect by foliage application, plastic box (symbol G); conditions: 320 g/ha, 3 weeks after application
Method in brief: as §1

[4] = test system: Echinochloa oryzacola Vasing.; assay: Test Example 1: herbicidal activity, application before weed generation in submerged conditions (symbol A); conditions: application herbicide amount 320 g/ha
Method in brief: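 Greenhouse growth at 25–30 °C lasted 3 weeks after treatment, when each weed was graded 0–5 by herbicidal ratio. Treatment was a diluted emulsion applied to the water surface of 4 cm-submerged alluvial soil on the sowing day.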

Veronica persica [5] = assay: Test Example 5: herbicidal effect by foliage application, plastic box (symbol R); conditions: 320 g/ha, 3 weeks after application
Method in brief: as §1

Setaria viridis [6] = assay: Test Example 4: herbicidal effect by soil treatment (symbol G); conditions: application herbicide amount 320 g/ha
Method in brief: as §2

soybean [7] = assay: Test Example 5: effect on crop by foliage application, plastic box (symbol d); conditions: 320 g/ha, 3 weeks after application
Method in brief: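 Crop seed is sown alongside grass and broadleaf weed species in spots in sterilized diluvial soil, then covered to a depth of about 1.5 cm. Plants grow in a greenhouse kept at 25° C. to 30° C.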

Alopecurus myosuroides [8] = assay: Test Example 5: herbicidal effect by foliage application, plastic box (symbol J); conditions: 320 g/ha, 3 weeks after application
Method in brief: as §1

soybean [9] = assay: Test Example 4: effect on crop by soil treatment (symbol d); conditions: application herbicide amount 320 g/ha
Method in brief: (§3)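 Diluvial soil (sterilized) in boxes; seeds placed spot-wise alongside weed species; ~1.5 cm covering soil. Greenhouse, 25–30° C.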

Cyperus difformis = assay: Test Example 3: herbicidal effect by foliage application, Wagner pot (symbol E); conditions: application herbicide amount 320 g/ha, Table 24
Method in brief: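 Alluvial soil was flooded to a depth of 0.1–0.5 cm, seeded with the weeds and rice, and kept in a greenhouse at 25–30 °C. After 14 days of growth, the foliage received a small-sprayer application of emulsion diluted to the intended rate; injury was rated at 3 weeks.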

rice = assay: Test Example 4: effect on crop by soil treatment (symbol b); conditions: application herbicide amount 320 g/ha
Method in brief: as §3

Apera spica-venti = assay: Test Example 4: herbicidal effect by soil treatment (symbol L); conditions: application herbicide amount 320 g/ha
Method in brief: as §2

wheat = assay: Test Example 4: effect on crop by soil treatment (symbol e); conditions: application herbicide amount 320 g/ha
Method in brief: as §3

Lolium multiflorum Lam. [10] = assay: Test Example 4: herbicidal effect by soil treatment (symbol K); conditions: application herbicide amount 320 g/ha
Method in brief: as §2

Amaranthus retroflexus = assay: Test Example 5: herbicidal effect by foliage application, plastic box (symbol N); conditions: 320 g/ha, 3 weeks after application
Method in brief: as §1

Veronica persica [11] = assay: Test Example 4: herbicidal effect by soil treatment (symbol R); conditions: application herbicide amount 320 g/ha
Method in brief: as §2

Row | SMILES | K: Lolium multiflorum Lam., herbicidal effect grade (Lolium multiflorum Lam. [1]) | I: Avena fatua, herbicidal effect grade (Avena fatua) | Herbicidal effect grade, J: Alopecurus myosuroides (Alopecurus myosuroides [2]) | Effect on crop grade, c: corn (corn) | G: Setaria viridis, herbicidal effect grade (Setaria viridis [3]) | A (Echinochloa oryzacola Vasing.) herbicidal effect grade [4] | R: Veronica persica, herbicidal effect grade (Veronica persica [5]) | Herbicidal effect grade, G: Setaria viridis (Setaria viridis [6]) | d: soybean, effect on crop grade (soybean [7]) | J: Alopecurus myosuroides, herbicidal effect grade (Alopecurus myosuroides [8]) | Effect on crop grade, d: soybean (soybean [9]) | E herbicidal effect grade (Cyperus difformis) | Effect on crop grade, b: directly sowed rice plant (rice) | Herbicidal effect grade, L: Apera spica-venti (Apera spica-venti) | Effect on crop grade, e: wheat (wheat) | Herbicidal effect grade, K: Lolium multiflorum Lam. (Lolium multiflorum Lam. [10]) | N: Amaranthus retroflexus, herbicidal effect grade (Amaranthus retroflexus) | Herbicidal effect grade, R: Veronica persica (Veronica persica [11])
1 | CC#Cc1cc(C)c(C2=C(O)CC(CC(=NOCC(F)(F)F)C(C)C)C2=O)c(C)c1 (stereo not drawn) [9-015] | 5 (Herbicidal ratio of 90% or more (almost completely withered)) | 4 (Herbicidal ratio of 70% or higher and lower than 90%) | 5 (Herbicidal ratio of 90% or more (almost completely withered)) | 0 (Herbicidal ratio of 5% or lower (almost no effect)) | 5 (Herbicidal ratio of 90% or more (almost completely withered)) | 5 (Herbicidal ratio of 90% or more (almost completely withered)) | 4 (Herbicidal ratio of 70% or higher and lower than 90%) | 5 (Herbicidal ratio of 90% or more (almost completely withered)) | 0 (Herbicidal ratio of 5% or lower (almost no effect)) | 5 (Herbicidal ratio of 90% or more (almost completely withered)) | 0 (Herbicidal ratio of 5% or lower (almost no effect)) | 5 (Herbicidal ratio of 90% or more (almost completely withered)) | 5 (Herbicidal ratio of 90% or more (almost completely withered)) | 5 (Herbicidal ratio of 90% or more (almost completely withered)) | 3 (Herbicidal ratio of 40% or higher and lower than 70%) | 5 (Herbicidal ratio of 90% or more (almost completely withered)) | 0 (Herbicidal ratio of 5% or lower (almost no effect)) | 0 (Herbicidal ratio of 5% or lower (almost no effect))
2 | CC(CC1CC(O)=C(c2c(C)cc(-n3cc(Cl)cn3)cc2C)C1=O)=NOCC(F)(F)F (stereo not drawn) [9-010] | 5 (Herbicidal ratio of 90% or more (almost completely withered)) | 4 (Herbicidal ratio of 70% or higher and lower than 90%) | 5 (Herbicidal ratio of 90% or more (almost completely withered)) | 1 (Herbicidal ratio of 5% or higher and lower than 20%) | 5 (Herbicidal ratio of 90% or more (almost completely withered)) | 5 (Herbicidal ratio of 90% or more (almost completely withered)) | 3 (Herbicidal ratio of 40% or higher and lower than 70%) | 5 (Herbicidal ratio of 90% or more (almost completely withered)) | 2 (Herbicidal ratio of 20% or higher and lower than 40%) | 5 (Herbicidal ratio of 90% or more (almost completely withered)) | 0 (Herbicidal ratio of 5% or lower (almost no effect)) | 5 (Herbicidal ratio of 90% or more (almost completely withered)) | 5 (Herbicidal ratio of 90% or more (almost completely withered)) | 5 (Herbicidal ratio of 90% or more (almost completely withered)) | 0 (Herbicidal ratio of 5% or lower (almost no effect)) | 5 (Herbicidal ratio of 90% or more (almost completely withered)) | 3 (Herbicidal ratio of 40% or higher and lower than 70%) | 0 (Herbicidal ratio of 5% or lower (almost no effect))

From patent US11000033B2, “Ketone or oxime compound, and herbicide” (NISSAN CHEMICAL CORPORATION, priority 2014, dated 2021)
